According to patent US7858349B2, “Anti-cancer compounds” (The Regents of the University of Colorado, priority 1999, dated 2010):

Legend:
[1] = tested on: PC3 PC cells; assay: Inhibition of PC3 tumor growth in vivo in nude mice; set-up: species or system athymic nude mice; key to PC3 In vivo % inhib.: an IC50 value of “0” represents no detectable anti-cancer activity for a drug in a given cell line; “Stim.” indicates the observation of a stimulatory activity on the growth of the cancer cell line; conditions: percent inhibition of tumor growth in nude mice; prostate cancer; i.p. 5 mg/kg/every second day or 10 mg/kg/every fourth day
Experimental: Compounds having high in vitro cytotoxic activity were tested against implanted tumors in vivo. Athymic nude mice were implanted subcutaneously with suspensions (2 million SHP-77 SCLC cells, 1 million A549 NSCLC cells or 1.5 million PC3 PC cells) in Matrigel suspension. On the eighth day after tumor implantation groups of 5 mice bearing implants were injected intraperitoneally with the compounds being tested at 5 mg/kg/every second day or at 10 mg/kg/every fourth day; control animals were injected with an equal volume of isotonic saline. Less soluble compounds were initially dissolved in dimethyl sulfoxide (DMSO) and diluted with medium. In those cases the control injections contained the same concentration of DMSO. Tumor size was measured with a caliper three times per week. Tumor volume was calculated by the formula: Volume(cc)=3.14×(length)×(width)^2/6 At autopsy tumors were removed and weighed. Tumor inhibition was calculated on both weight and measurement basis. In each Table, an IC50 value of “0” represents no detectable anti-cancer activity for a drug in a given cell line and “Stim.” indicates the observation of a stimulatory activity on the growth of the cancer cell line.

[2] = tested on: SCLC strain SHP-77; assay: MTT assay for cell survival, SCLC SHP-77 in vitro; format: cell-based, human; conditions: ED50 for killing of SCLC strain SHP-77 in vitro, 4 days, 0 = no detectable activity, read-out: SCLC SHP-77 IC50

SMILES: CC1(C)CC(NC(=O)C(Cc2ccc(OCc3c(Cl)cccc3Cl)cc2)NC(=O)c2ccccc2O)CC(C)(C)N1 (stereo not drawn) [Analog M-1450, 2Hyb-OC2Y-Atmp]
- PC3 In vivo % inhib. [1]: Stim.
- IC50 [2]: 13 µM

SMILES: CC1(C)CC(NC(=O)C(Cc2ccc(OCc3c(Cl)cccc3Cl)cc2)NC(=O)c2c(F)c(N)cc(F)c2F)CC(C)(C)N1 (stereo not drawn) [Analog M-1452, Atfb-OC2Y-Atmp]
- PC3 In vivo % inhib. [1]: Stim.
- IC50 [2]: 7.2 µM

SMILES: CC1(C)CC(NC(=O)C(Cc2ccc(OCc3c(Cl)cccc3Cl)cc2)NC(=O)C=Cc2ccc(C=O)cc2)CC(C)(C)N1 (stereo not drawn) [Analog M-1456, Fcin-OC2Y-Atmp]
- PC3 In vivo % inhib. [1]: 17%
- IC50 [2]: 4 µM

SMILES: CC1(C)CC(NC(=O)C(Cc2ccc(OCc3c(Cl)cccc3Cl)cc2)NC(=O)c2ccc(S(N)(=O)=O)cc2)CC(C)(C)N1 (stereo not drawn) [Analog M-1458, Sab-OC2Y-Atmp]
- PC3 In vivo % inhib. [1]: Stim.
- IC50 [2]: > 60 µM

SMILES: CC1(C)CC(NC(=O)C(Cc2ccc(OCc3c(Cl)cccc3Cl)cc2)NC(=O)C=Cc2ccc(B(O)O)cc2)CC(C)(C)N1 (stereo not drawn) [Analog M-1460, Bcin-OC2Y-Atmp]
- PC3 In vivo % inhib. [1]: 38%
- IC50 [2]: 23 µM

SMILES: CC1(C)CC(NC(=O)C(Cc2ccc(OCc3c(Cl)cccc3Cl)cc2)NC(=O)C2CC(=O)NC(=O)N2)CC(C)(C)N1 (stereo not drawn) [Analog M-1462, Hor-OC2Y-Atmp]
- PC3 In vivo % inhib. [1]: 7%
- IC50 [2]: > 60 µM

SMILES: CC(C=CC1(O)C(C)=CC(=O)CC1(C)C)=CC(=O)NC(Cc1ccc(OCc2c(Cl)cccc2Cl)cc1)C(=O)NC1CC(C)(C)NC(C)(C)C1 (stereo not drawn) [Analog M-1464, Aba-OC2Y-Atmp]
- PC3 In vivo % inhib. [1]: 14%
- IC50 [2]: 14 µM

SMILES: CC1(C)CC(NC(=O)C(Cc2ccc(C#N)cc2)NC(=O)CCCCC2SCC3NC(=O)NC32)CC(C)(C)N1 (stereo not drawn) [Analog M-1466, Biot-PCNF-Atmp]
- PC3 In vivo % inhib. [1]: 29%
- IC50 [2]: > 60 µM

SMILES: Cc1ccc(CSC(C)(C)C(NC(=O)CCCCC2SCC3NC(=O)NC32)C(=O)NC2CC(C)(C)NC(C)(C)C2)cc1 (stereo not drawn) [Analog M-1468, Biot-Pen(Mbzl)-Atmp]
- PC3 In vivo % inhib. [1]: 46%
- IC50 [2]: > 60 µM

SMILES: Cc1ccc(CSC(C)(C)C(NC(=O)CCCc2c[nH]c3ccccc23)C(=O)NC2CC(C)(C)NC(C)(C)C2)cc1 (stereo not drawn) [Analog M-1474, 3Ibu-Pen(Mbzl)-Atmp]
- PC3 In vivo % inhib. [1]: Stim.
- IC50 [2]: 7.8 µM

SMILES: CC1(C)CC(NC(=O)C(Cc2ccc(OCc3c(Cl)cccc3Cl)cc2)NC(=O)c2ccc(C(F)(F)F)cc2)CC(C)(C)N1 (stereo not drawn) [Analog M-1484, Ptmb-OC2Y-Atmp]
- PC3 In vivo % inhib. [1]: Stim.
- IC50 [2]: 1.8 µM

SMILES: Cc1ccc(CSC(C)(C)C(NC(=O)COc2c(F)c(F)c(F)c(F)c2F)C(=O)NC2CC(C)(C)NC(C)(C)C2)cc1 (stereo not drawn) [Analog M-1486, F5po-Pen(Mbzl)-Atmp]
- PC3 In vivo % inhib. [1]: 21%
- IC50 [2]: 4.2 µM

SMILES: Cc1ccc(CSC(C)(C)C(NC(=O)C23CC4CC(CC(C4)C2)C3)C(=O)NC2CC(C)(C)NC(C)(C)C2)cc1 (stereo not drawn) [Analog M-1492, Aca-Pen(Mbzl)-Atmp]
- PC3 In vivo % inhib. [1]: 15%
- IC50 [2]: 3.4 µM

SMILES: CC1(C)CC(NC(=O)C(Cc2ccc(OCc3c(Cl)cccc3Cl)cc2)NC(=O)C23CC4CC(CC(C4)C2)C3)CC(C)(C)N1 (stereo not drawn) [Analog M-1494, Aca-OC2Y-Atmp]
- PC3 In vivo % inhib. [1]: 40%
- IC50 [2]: 1.6 µM

SMILES: CC1(C)CC(NC(=O)[C@H](Cc2ccc(C#N)cc2)NC(=O)C23CC4CC(CC(C4)C2)C3)CC(C)(C)N1 [Analog M-1496, Aca-PCNF-Atmp]
- PC3 In vivo % inhib. [1]: 2%
- IC50 [2]: > 60 µM

SMILES: Cc1ccc(CSC(C)(C)C(NC(=O)CCCc2ccc(N(CCCl)CCCl)cc2)C(=O)NC2CC(C)(C)NC(C)(C)C2)cc1 (stereo not drawn) [Analog M-1498, Chl-Pen(Mbzl)-Atmp]
- PC3 In vivo % inhib. [1]: 20%
- IC50 [2]: 3.5 µM

SMILES: Cc1ccc(CSC(C)(C)C(NC(=O)C=Cc2cc(F)cc(F)c2F)C(=O)NC2CC(C)(C)NC(C)(C)C2)cc1 (stereo not drawn) [Analog M-1502, F3c-Pen(Mbzl)-Atmp]
- PC3 In vivo % inhib. [1]: 11%
- IC50 [2]: 3.4 µM

SMILES: COc1ccc2cc(C(C)C(=O)NC(C(=O)NC3CC(C)(C)NC(C)(C)C3)C(C)(C)SCc3ccc(C)cc3)ccc2c1 (stereo not drawn) [Analog M-1506, Napr-Pen(Mbzl)-Atmp]
- PC3 In vivo % inhib. [1]: 13%
- IC50 [2]: 4.7 µM

SMILES: COc1ccc2cc(C(C)C(=O)NC(Cc3ccc(C#N)cc3)C(=O)NC3CC(C)(C)NC(C)(C)C3)ccc2c1 (stereo not drawn) [Analog M-1508, Napr-PCNF-Atmp]
- PC3 In vivo % inhib. [1]: 45%
- IC50 [2]: 23 µM

SMILES: Cc1ccc(CSC(C)(C)C(NC(=O)C(C)(c2ccccc2)c2ccccc2)C(=O)NC2CC(C)(C)NC(C)(C)C2)cc1 (stereo not drawn) [Analog M-1510, 22Dp-Pen(Mbzl)-Atmp]
- PC3 In vivo % inhib. [1]: Stim.
- IC50 [2]: 4.2 µM

SMILES: CC1(C)CC(NC(=O)[C@H](Cc2ccc(C#N)cc2)NC(=O)C(C)(c2ccccc2)c2ccccc2)CC(C)(C)N1 [Analog M-1512, 22Dp-PCNF-Atmp]
- PC3 In vivo % inhib. [1]: 48%
- IC50 [2]: 22 µM

SMILES: COc1ccc2c(c1)c(CC(=O)NC(C(=O)NC1CC(C)(C)NC(C)(C)C1)C(C)(C)SCc1ccc(C)cc1)c(C)n2C(=O)c1ccc(Cl)cc1 (stereo not drawn) [Analog M-1518, Indo-Pen(Mbzl)-Atmp]
- PC3 In vivo % inhib. [1]: Stim.
- IC50 [2]: 6 µM

SMILES: COc1ccc2c(c1)c(CC(=O)N[C@@H](Cc1ccc(C#N)cc1)C(=O)NC1CC(C)(C)NC(C)(C)C1)c(C)n2C(=O)c1ccc(Cl)cc1 [Analog M-1520, Indo-PCNF-Atmp]
- PC3 In vivo % inhib. [1]: Stim.
- IC50 [2]: 13 µM

SMILES: Cc1ccc(CSC(C)(C)C(NC(=O)c2cnccn2)C(=O)NC2CC(C)(C)NC(C)(C)C2)cc1 (stereo not drawn) [Analog M-1522, 2Pyz-Pen(Mbzl)-Atmp]
- PC3 In vivo % inhib. [1]: Stim.
- IC50 [2]: 31 µM

SMILES: CC1(C)CC(NC(=O)C(Cc2ccc(OCc3c(Cl)cccc3Cl)cc2)NS(=O)(=O)c2ccc(OC(F)(F)F)cc2)CC(C)(C)N1 (stereo not drawn) [Analog M-1536, 4Tmbs-OC2Y-Atmp]
- PC3 In vivo % inhib. [1]: Stim.
- IC50 [2]: 3.2 µM

SMILES: CC1(C)CC(NC(=O)C(Cc2ccc(OCc3c(Cl)cccc3Cl)cc2)NC(=O)c2ccc(OC(F)(F)F)cc2)CC(C)(C)N1 (stereo not drawn) [Analog M-1538, 4Tfmb-OC2Y-Atmp]
- PC3 In vivo % inhib. [1]: Stim.
- IC50 [2]: 1.8 µM

SMILES: CC1(C)CC(NC(=O)C(Cc2ccc(OCc3c(Cl)cccc3Cl)cc2)NC(=O)c2ccc(-c3ccccc3)cc2)CC(C)(C)N1 (stereo not drawn) [Analog M-1542, 4Bpc-OC2Y-Atmp]
- PC3 In vivo % inhib. [1]: Stim.
- IC50 [2]: 6.4 µM

SMILES: O=C(C=Cc1c(F)c(F)c(F)c(F)c1F)NC(Cc1ccc(OCc2c(Cl)cccc2Cl)cc1)C(=O)NC1CN2CCC1CC2 [Analog M-1544, F5c-OC2Y-(R)-Aqu]
- PC3 In vivo % inhib. [1]: 28%
- IC50 [2]: 6 µM

SMILES: O=C(C=Cc1c(F)c(F)c(F)c(F)c1F)NC(Cc1ccc(OCc2c(Cl)cccc2Cl)cc1)C(=O)NC1CN2CCC1CC2 [Analog M-1546, F5c-OC2Y-(S)-Aqu]
- PC3 In vivo % inhib. [1]: 29%
- IC50 [2]: 1.8 µM

SMILES: O=C(C=Cc1c(F)c(F)c(F)c(F)c1F)NC(Cc1ccc(OCc2c(Cl)cccc2Cl)cc1)C(=O)NC1CCN(Cc2ccccc2)CC1 (stereo not drawn) [Analog M-1552, F5c-OC2Y-Abzp]
- PC3 In vivo % inhib. [1]: 52%
- IC50 [2]: 13 µM

SMILES: O=C(C=Cc1c(F)c(F)c(F)c(F)c1F)NC(Cc1ccc(OCc2c(Cl)cccc2Cl)cc1)C(=O)N1CCN(c2ncccn2)CC1 (stereo not drawn) [Analog M-1554, F5c-OC2Y-Pmpz]
- PC3 In vivo % inhib. [1]: Stim.
- IC50 [2]: 6.8 µM

SMILES: CC1CN(C(=O)C(Cc2ccc(OCc3c(Cl)cccc3Cl)cc2)NC(=O)C=Cc2c(F)c(F)c(F)c(F)c2F)CC(C)N1Cc1ccccc1 (stereo not drawn) [Analog M-1556, F5c-OC2Y-cDmbp]
- PC3 In vivo % inhib. [1]: 59%
- IC50 [2]: 18 µM

SMILES: COc1ccc2c(c1)c(CC(=O)N[C@@H](Cc1ccc(OCc3c(Cl)cccc3Cl)cc1)C(=O)NC1CCN(Cc3ccccc3)CC1)c(C)n2C(=O)c1ccc(Cl)cc1 [Analog M-1558, Indo-OC2Y-Abzp]
- PC3 In vivo % inhib. [1]: Stim.
- IC50 [2]: 9.6 µM

SMILES: COc1ccc2c(c1)c(CC(=O)NC(Cc1ccc(OCc3c(Cl)cccc3Cl)cc1)C(=O)N1CC(C)N(Cc3ccccc3)C(C)C1)c(C)n2C(=O)c1ccc(Cl)cc1 (stereo not drawn) [Analog M-1560, Indo-OC2Y-cDmbp]
- PC3 In vivo % inhib. [1]: Stim.
- IC50 [2]: > 60 µM

SMILES: COc1ccc2c(c1)c(CC(=O)N[C@@H](Cc1ccc(OCc3c(Cl)cccc3Cl)cc1)C(=O)N1CCN(c3ncccn3)CC1)c(C)n2C(=O)c1ccc(Cl)cc1 [Analog M-1562, Indo-OC2Y-Pmpz]
- PC3 In vivo % inhib. [1]: 2%
- IC50 [2]: > 60 µM

SMILES: COc1ccc2c(c1)c(CC(=O)N[C@@H](Cc1ccc(OCc3c(Cl)cccc3Cl)cc1)C(=O)N1CCN(C/C=C/c3ccccc3)CC1)c(C)n2C(=O)c1ccc(Cl)cc1 [Analog M-1566, Indo-OC2Y-tCip]
- PC3 In vivo % inhib. [1]: 57%
- IC50 [2]: > 60 µM

SMILES: Cc1onc(-c2ccccc2Cl)c1C(=O)N[C@@H](Cc1ccc(OCc2c(Cl)cccc2Cl)cc1)C(=O)NC1CC(C)(C)NC(C)(C)C1 [Analog M-1568, Cmioc-OC2Y-Atmp]
- PC3 In vivo % inhib. [1]: Stim.
- IC50 [2]: 3.6 µM

SMILES: CC1(C)CC(NC(=O)C(Cc2ccc(OCc3c(Cl)cccc3Cl)cc2)NC(=O)C=CC(=O)c2ccccc2)CC(C)(C)N1 (stereo not drawn) [Analog M-1576, Bzac-OC2Y-Atmp]
- PC3 In vivo % inhib. [1]: 57%
- IC50 [2]: 6.2 µM

SMILES: CN1CCN(CCCNC(=O)[C@H](Cc2ccc(OCc3c(Cl)cccc3Cl)cc2)NC(=O)/C=C/c2c(F)c(F)c(F)c(F)c2F)CC1 [Analog M-1582, F5c-OC2Y-Amp]
- PC3 In vivo % inhib. [1]: 60%
- IC50 [2]: 6.7 µM
